According to patent publication US20040006042A1, “Diaminopyrimidines and combination therapies effective for treatment of P-glycoprotein positive cancers” (priority 1998, published 2004):
Converted amounts (≈) assume the structure as drawn. “And” between values parts separate entries of the source, which are not always exact repeats. Identical values can stand only once. Counter-ions that a name gives are not always drawn. Like-named read-outs stand apart in the source and are kept apart here.

Tests used:
[1] = system: Colon 26/clone 10 (C26/10); assay: Colon 26/clone 10 i.p. life span study; type: in vivo, CD2F1 mice; details: for C26 ip T/C: i.p. implant, treated i.p. Days 3-7 and 10-14 (Adriamycin Days 5, 9, 13), >130 = antitumor effect
Experimental: (§1) To test compounds of the present invention in vivo, the following methodology was used. P388 leukemia and its Adriamycin resistant subline, P388/ADR were passed weekly in DBA/2 mice as i.p. implants of 10^5 and 10^6 cells, respectively. Animals bearing P388/ADR passage were treated with 7 mg/kg Adriamycin on Day 3 post-implant as a resistance selection pressure. C26/clone 10 was passed every 2 weeks into Balb/c mice as tumor fragments (approximately 30 mg) which were obtained from tumors 1 g in mass.
Colon 26/clone 10 (C26/10) life span studies were conducted in CD2F1 mice. C26/C10 cells were implanted i.p. on Day 0. Animals were treated i.p. with test agents in the vehicles described above on Days 3-7 and 10-14. Adriamycin was dosed i.p. in saline on Days 5, 9, and 13. […] Percent T/C values in excess of 130 are indicative of an antitumor effect in this model.

P388 leukemia = assay: In vivo P388 leukemia life span study; parameters: species or system CD2F1 mice; details: maximum tolerated dose, i.p. Days 3-11 (Adriamycin Days 3, 7, 11); >130 = antitumor effect
P388/ADR cells [2] = assay: In vitro growth inhibition of P388/ADR cells; type: cell-based, murine; details: for IC50: Mus musculus, P388/ADR; for R/S: ratio resistant (P388/ADR) to sensitive (P388S) IC50
P388/ADR leukemia = assay: In vivo P388/ADR leukemia life span study; parameters: species or system CD2F1 mice; details: for P388/ADR T/C: maximum tolerated dose, i.p. Days 3-11 (Adriamycin Days 3, 7, 11), >130 = antitumor effect
P388S cells = assay: In vitro growth inhibition of P388S cells; type: cell-based; details: for IC50: Mus musculus, P388/S, read-out: P388S IC50
[3] = system: HT29 human colon adenocarcinoma cells
P388/ADR cells [4] = assay: Combination of antifolates with FU and LV on P388/ADR proliferation; type: cell-based, murine; details: P388/ADR; for Antifol + FU / Antifol + LV / Antifol + LV + FU: antifolate 1 nM 24 hours; for Antifol + FU / Antifol + LV + FU: 5 μM FU final 4 hours; for Antifol + LV / Antifol + LV + FU: LV 10 μM final 4.5 hours; for Antifol: antifolate 1 nM, 24 hours
[5] = system: P388 murine leukemia cells; assay: Combination of antifolates with FU and LV on P388 proliferation; type: cell-based; details: for Antifol + FU / Antifol + LV / Antifol + LV + FU: antifolate 1.0 nM 24 hours; for Antifol + FU / Antifol + LV + FU: 5 μM FU final 4 hours; for Antifol + LV / Antifol + LV + FU: LV 10 μM final 4.5 hours; for Antifol: antifolate 1.0 nM, 24 hours
C26/10 tumor = assay: C26/10 s.c. tumor growth delay study; type: in vivo, CD2F1 mice; details: tumor growth delay to 750 mg, s.c. implant, treated i.p. Days 3-7 and 10-14; >5 to 6 days = antitumor effect
Experimental: as §1
For the tumor growth delay studies with C26/10, CD2F1 mice were implanted s.c. with 30 mg tumor fragments in the region of the right axilla with the aid of a trocar on Day 0. Animals were treated i.p. with test agents in the vehicles described above on Days 3-7 and 10-14. Adriamycin was dosed i.p. in saline on Days 5, 9, and 13. Tumors in the treated and control groups were measured twice weekly in two perpendicular dimensions and tumor mass calculated according to the formula: mass (mg)=(a×b^2)/2 where “b” is the smallest tumor dimension and “a” is the largest. Calculations of tumor growth delay, defined as the median time (in days) for the treated tumors to reach 750 mg in size minus the median time (in days) for the control tumors to reach 750 mg in size, were as described previously (Schabel, 1977; Leopold, 1985; Elliot, 1984). Growth delays in excess of 5 to 6 days in the C26/10 model are considered to be an antitumor effect.

[6] = system: HT29 human colon adenocarcinoma cells; assay: Combination of antifolates with FU and LV on HT-29 proliferation (sulphorhodamine B); details: for Antifol + LV: antifolate 62.5 nM 24 hours, LV 10 μM final 4.5 hours; for Antifol: antifolate 62.5 nM, 24 hours
dihydrofolate reductase = molecular target: T1, dihydrofolate reductase (Homo sapiens, UniProt P00374); assay: Inhibition of dihydrofolate reductase (Table 1); type: biochemical
T1 sequence (P00374 1-187): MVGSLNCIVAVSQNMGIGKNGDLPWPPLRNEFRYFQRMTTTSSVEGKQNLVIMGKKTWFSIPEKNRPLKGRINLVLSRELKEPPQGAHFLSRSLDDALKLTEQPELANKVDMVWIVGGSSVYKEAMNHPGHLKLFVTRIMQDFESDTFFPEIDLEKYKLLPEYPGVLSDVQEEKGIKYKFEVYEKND

[7] = system: C26 murine colon tumor cells; assay: Combination of antifolates with FU and LV on C26 proliferation; type: cell-based; details: C26; 5 μM FU alone, 4 hours

Compound | C26 ip T/C [1] | P388S T/C (P388 leukemia) | IC50 (P388/ADR cells [2]; in vitro) | R/S (P388/ADR cells [2]) | P388/ADR T/C (P388/ADR leukemia) | IC50 (P388S cells; in vitro) | Antifol + FU (P388/ADR cells [4]) | Antifol + LV (P388/ADR cells [4]) | Antifol + LV + FU (P388/ADR cells [4]) | Antifol (P388/ADR cells [4]) | C26 sc T-C (C26/10 tumor) | Ki (dihydrofolate reductase) | also measured
COc1cccc2c1C(=O)c1c(O)c3c(c(O)c1C2=O)C[C@@](O)(C(=O)CO)C[C@@H]3O[C@H]1C[C@H](N)[C@H](O)[C@H](C)O1 [Adriamycin, reference compound] | 180% | 250% | 3.9 µg/mL (≈ 7.18 µM) | 52 | 108% | 0.075 µg/mL (≈ 0.138 µM) | – | – | – | – | – | – | activity against P388/ADR tumors in vivo (P388/ADR leukemia; in words): inactive
Cc1nc(N)nc(N)c1N1CCN(c2ccc(/C=N/OCCN)cc2)CC1 [Example 12, 4-[4-(2,4-Diamino-6-methyl-pyrimidin-5-yl)-piperazin-1-yl]-benzaldehyde O-(2-amino-ethyl)-oxime, dihydrochloride] | – | – | 0.0117 µg/mL | 1.1 | – | – | 30% of control | 65% of control | 25% of control | 65% of control | 5.2 days | – | Antifol + FU [3]: 35% of control; Antifol + LV + FU [3]: 27% of control; Antifol + FU [5]: 20% of control; Antifol + LV [5]: 97% of control; Antifol + LV + FU [5]: 16% of control; Antifol [5]: 100% of control; Antifol + LV [6]: 67% of control; Antifol [6]: 52% of control; IC50 (P388S cells): 0.011 µg/mL
CCOC(=O)CCC(NC(=O)c1ccc(N2CCN(c3c(N)nc(N)nc3CC)CC2)cc1)C(=O)OCC (stereo not drawn) [C, 2-{4-[4-(2,4-Diamino-6-ethyl-pyrimidin-5-yl)-pierazin-1-yl]-benzoylamino}pentanedioic acid diethyl ester] | – | – | – | – | – | – | 40% of control | 80% of control | 30% of control | 88% of control | – | 0.109 nM | –
Cc1nc(N)nc(N)c1N1CCN(c2ccc(S(C)(=O)=O)cc2)CC1 [E] | – | – | – | – | – | – | – | – | – | – | – | 0.138 nM | –
Cc1nc(N)nc(N)c1N1CCN(c2ccc(C(=O)O)cc2)CC1 [B, 4-[4-(2,4-Diamino-6-methyl-pyrimidin-5-yl)-piperzain-1-yl]-benzoic acid] | – | – | – | – | – | – | 30% of control | 70% of control | 28% of control | 62% of control | – | 0.201 nM | –
CC(=O)c1ccc(N2CCN(c3c(C)nc(N)nc3N)CC2)cc1F [H, 1-{4-[4-(2,4-Diamino-6-methyl-pyrimidin-5-yl)-piperazin-1-yl]-2-fluoro-phenyl}-ethanone] | 169% | 170% | 0.029 µg/mL (≈ 0.0842 µM) | 1.1 | – | 0.0026 µg/mL (≈ 0.00755 µM) | – | – | – | – | 9.4 days | – | Antifol + FU [3]: 52% of control; Antifol + LV + FU [3]: 40% of control; Antifol + FU [5]: 20% of control; Antifol + LV [5]: 86% of control; Antifol + LV + FU [5]: 15% of control; Antifol [5]: 82% of control; Antifol + LV [6]: 77% of control; Antifol [6]: 74% of control
Cc1nc(N)nc(N)c1N1CCN(c2ccc(C(=O)NN)cc2)CC1 [Example 11, 4-[4-(2,4-Diamino-6-methyl-5-pyrinidinyl)-1-piperazinyl]benzoic acid, hydrazide] | 164% | 195% | 0.0161 µg/mL (≈ 0.047 µM) | 1.5 | 161% | 0.0105 µg/mL (≈ 0.0307 µM) | 48% of control | 80% of control | 16% of control | 77% of control | – | – | Antifol + FU [3]: 42% of control; Antifol + LV + FU [3]: 33% of control; Antifol + LV [6]: 80% of control; Antifol [6]: 87% of control
Cc1nc(N)nc(N)c1N1CCN(c2ccc(C=O)cc2)CC1 [Example 1] | 263% | 190% | 0.0068 µg/mL (≈ 0.0218 µM) | 1.1 | 169% | 0.005 µg/mL (≈ 0.016 µM) | – | – | – | – | 7.6 days | 0.073 nM | activity against C26 colon tumor in vivo ([1]; in words, T/C×100>130 represents in vivo antitumor activity): curative
Nc1ncc(N2CCN(c3ccc(C(=O)O)cc3)CC2)c(N)n1 [G] | 202% | 220% | – | 0.98 | 245% | – | – | – | – | – | 4.9 days | – | P388/ADR IC50 (P388/ADR cells [2]; in vitro): 0.074 µg/mL; P388S IC50 (P388S cells; in vitro): 0.076 µg/mL
Cc1nc(N)nc(N)c1N1CCN(c2ccc(C(=O)N(C)N)cc2)CC1 [Example 13, 4-[4-(2,4-Diamino-6-methyl-5-pryimidinyl)-1-piperazinyl]benzoic acid, 1-methylhydrazide] | – | – | – | – | – | – | – | – | – | – | – | – | Antifol + FU [5]: 10% of control; Antifol + LV [5]: 85% of control; Antifol + LV + FU [5]: 7% of control; Antifol [5]: 85% of control
Cc1nc(N)nc(N)c1N1CCN(c2ccc(CNC(CCC(=O)O)C(=O)O)cc2)CC1 (stereo not drawn) [A] | – | – | – | – | – | – | – | – | – | – | – | – | Ki (dihydrofolate reductase; read-out: Ki): 0.053 nM
Cc1nc(N)nc(N)c1-c1ncncc1-c1ccc(C(=O)O)cc1 [Compound F, 4-[4-(2,4-Diamino-6-methyl-pyrimidin-5-yl)-pyrimidin-5-yl]-benzoic acid] | – | 260% | 0.04 µg/mL (≈ 0.124 µM) | 1.1 | – | 0.033 µg/mL (≈ 0.102 µM) | – | – | – | – | – | – | –
O=c1[nH]cc(F)c(=O)[nH]1 [FU, 5-fluorouracil, reference compound] | – | – | – | – | – | – | – | – | – | – | – | – | FU [7]: 72% of Control; FU (P388/ADR cells [4]; 5 μM FU alone, 4 hours): 90% of control and 90* percent of control; FU ([5]; 5 μM FU alone, 4 hours): 90% of control and 90* percent of control
